Measured values taken from patent US20090012056A1, “Quinoline Compounds Capable of Binding the Cb2 and/or the 5-Ht6 Receptor” (GLAXO GROUP LIMITED, priority 2005, published 2009).
Where a name gives a salt, the structure may show the parent alone.

Tests used:
[1] = target: T1, human cloned 5-HT6 receptors (Homo sapiens, UniProt P50406); experiment: Cyclase assay (cAMP production in membranes of HeLa 5HT6 cells, antagonism of 5-HT); type: biochemical; conditions: cyclase assay with 5-HT at 4xEC50, read-out: fpKi (functional pKi, antagonist potency) (converted)
T1 construct: expressed in transfected cells; host or cells: HeLa cells (membranes)
Protocol: 0.5 μl of test compound in 100% dimethylsulfoxide (DMSO) was added to a white, solid 384 well assay plate (for dose response measurements the top of the concentration range is 7.5 μM final). 10 μl of washed membranes of HeLa 5HT6 cells (for preparation see WO 98/27081) in basic buffer (50 mM HEPES pH 7.4 (KOH), 1 mM MgCl2, 100 mM NaCl, 1 μl/ml 3-isobutyl-1-methylxanthine (IBMX) (Sigma-Aldrich)) was added to all wells followed by 10 μl 2×ATP buffer (100 μl/ml ATP and 1 μl/ml 3-Isobutyl-1-methylxanthine (IBMX) (Sigma-Aldrich)) with 5-HT (at a concentration equivalent to a dose response of 4×EC50). The resultant mixture was then incubated at room temperature for 30-45 minutes to allow cAMP production.
cAMP production was then measured using the DiscoveRx™ HitHunter™ chemiluminescence cAMP assay kit (DiscoveRx Corporation, 42501 Albrae Street, Fremont, Calif. 94538; Product Code: 90-0004L) or any other suitable cAMP measurement assay.
IC50 values were estimated from arbitrary designated unit (ADU) measurements from a Perkin Elmer Viewlux instrument using a four parameter logistic curve fit within EXCEL (Bowen, W. P. and Jerman, J. C. (1995), Nonlinear regression using spreadsheets. Trends in Pharmacol. Sci., 16, 413-417). Functional Ki values were calculated using the method of Cheng, Y. C. and Prussof, W. H. (Biochemical Pharmacol (1973) 22 3099-3108). pIC50 and fpKi are the negative log 10 of the molar IC50 and functional Ki respectively.

[2] = target: T2, human cannabinoid CB2 receptor (Homo sapiens, UniProt P34972); experiment: Cannabinoid CB2 receptor agonist activity in yeast cells expressing the human CB2 receptor (FDGlu fluorescence); type: cell-based; conditions: 24 hours at 30° C., read-out: pEC50 at the CB2 receptor (agonist activity) (converted)
T2 construct: expressed in transfected cells; host or cells: Saccharomyces cerevisiae strain MMY23
Description: Yeast (Saccharomyces cerevisiae) cells expressing the human cannabinoid CB2 receptor were generated by integration of an expression cassette into the ura3 chromosomal locus of yeast strain MMY23. This cassette consisted of DNA sequence encoding the human CB2 receptor flanked by the yeast GPD promoter to the 5′ end of CB2 and a yeast transcriptional terminator sequence to the 3′ end of CB2. MMY23 expresses a yeast/mammalian chimeric G-protein alpha subunit in which the C-terminal 5 amino acids of Gpa1 are replaced with the C-terminal 5 amino acids of human Gαi1/23 (as described in Brown et al. (2000), Yeast 16:11-22). Cells were grown at 30° C. in liquid Synthetic Complete (SC) yeast media (Guthrie and Fink (1991), Methods in Enzymology, Vol. 194) lacking uracil, tryptophan, adenine and leucine to late logarithmic phase (approximately 6 OD600/ml).
Agonists were prepared as 10 mM solutions in DMSO. EC50 values (the concentration required to produce 50% maximal response) were estimated using 4 fold dilutions of between 3- and 5-fold (BiomekFX, Beckman) into DMSO. Agonist solutions in DMSO (1% final assay volume) were transferred into black microtitre plates from NUNC Greiner (384-well). Cells were suspended at a density of 0.2 OD600/ml in SC media lacking histidine, uracil, tryptophan, adenine and leucine and supplemented with 10 mM 3-aminotriazole, 0.1M sodium phosphate pH 7.0, and 120 μM fluorescein di-β-D-glucopyranoside (FDGlu). This mixture (50 ul per well) was added to agonist in the assay plates (Multidrop 384, Labsystems). After incubation at 30° C. for 24 hours, fluorescence resulting from degradation of FDGlu to fluorescein due to exoglucanase, an endogenous yeast enzyme produced during agonist-stimulated cell growth, was determined using a fluorescence microtitre plate reader (Tecan Spectrofluor or LJL Analyst excitation wavelength: 485 nm; emission wavelength: 535 nm). Fluorescence was plotted against compound concentration and iteratively curve fitted using a four parameter fit to generate a concentration effect value.
Efficacy (Emax) was calculated from the equation
Emax=Max[compound X]−Min[compound X]/Max[HU210]−Min[HU210]×100% • where Max[compound X] and Min[compound X] are the fitted maximum and minimum respectively from the concentration effect curve for compound X, and Max[HU210] and Min[HU210] are the fitted maximum and minimum respectively from the concentration effect curve for (6aR,10aR)-3-(1,1′-Dimethylheptyl)-6a,7,10,10a-tetrahydro-1-hydroxy-6,6-dimethyl-6H-dibenzo[b,d]pyran-9-methanol (HU210; available from Tocris). Equieffective molar ratio (EMR) values were calculated from the equation
EMR=EC50[compound X]/EC50[HU210] • Where EC50 [compound X] is the EC50 of compound X and EC50 [HU210] is the EC50 of HU210. • pEC50 is the negative log of the EC50.

T1 sequence (P50406 whole entry): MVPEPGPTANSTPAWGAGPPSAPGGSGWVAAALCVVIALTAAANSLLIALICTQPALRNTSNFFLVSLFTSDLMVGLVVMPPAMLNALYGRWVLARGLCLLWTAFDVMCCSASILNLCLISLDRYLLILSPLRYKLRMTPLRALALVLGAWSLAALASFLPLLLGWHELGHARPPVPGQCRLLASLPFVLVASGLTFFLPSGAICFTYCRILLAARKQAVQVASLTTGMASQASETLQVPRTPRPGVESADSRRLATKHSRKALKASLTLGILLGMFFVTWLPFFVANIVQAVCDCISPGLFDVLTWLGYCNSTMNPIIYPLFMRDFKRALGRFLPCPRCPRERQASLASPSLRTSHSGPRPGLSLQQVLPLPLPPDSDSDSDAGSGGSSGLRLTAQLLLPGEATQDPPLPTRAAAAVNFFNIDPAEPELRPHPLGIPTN
T2 sequence (P34972 whole entry): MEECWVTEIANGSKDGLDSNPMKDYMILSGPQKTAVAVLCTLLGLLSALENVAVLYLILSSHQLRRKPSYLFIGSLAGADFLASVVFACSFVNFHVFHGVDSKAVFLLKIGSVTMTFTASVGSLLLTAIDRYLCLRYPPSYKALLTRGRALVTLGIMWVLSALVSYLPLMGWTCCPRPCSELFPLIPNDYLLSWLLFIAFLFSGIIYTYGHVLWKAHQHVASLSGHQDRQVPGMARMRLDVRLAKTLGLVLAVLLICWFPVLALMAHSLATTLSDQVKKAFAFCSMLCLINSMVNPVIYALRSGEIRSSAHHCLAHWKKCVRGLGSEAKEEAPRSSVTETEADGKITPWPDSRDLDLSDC

Ki [1] [µM] | EC50 [2] [µM] | SMILES
< 0.1 | > 31.6 | CN1CCN(Cc2cccc3cc(S(=O)(=O)c4ccccc4)cnc23)CC1 [Example 3, 8-[(4-Methyl-1-piperazinyl)methyl]-3-(phenylsulfonyl)quinoline]
< 0.1 | ≤ 10 | O=S(=O)(c1ccc(F)cc1)c1cnc2c(CN3CCCC3)cccc2c1 [Example 23, 3-[(4-Fluorophenyl)sulfonyl]-8-(1-pyrrolidinylmethyl)quinoline hydrochloride]
< 0.1 | ≤ 10 | O=S(=O)(c1ccccc1)c1cnc2c(CN3CCC4(CC3)OCCO4)cccc2c1 [Example 31, 8-(1,4-Dioxa-8-azaspiro[4.5]dec-8-ylmethyl)-3-(phenylsulfonyl)quinoline hydrochloride]
≤ 1 | < 1 | O=S1(=O)CCN(Cc2cccc3cc(S(=O)(=O)c4ccccc4)cnc23)CC1 [Example 32, 8-[(1,1-Dioxido-4-thiomorpholinyl)methyl]-3-(phenylsulfonyl)quinoline hydrochloride]
< 0.1 | ≤ 10 | O=S(=O)(c1ccccc1)c1cnc2c(CN3CCCC3)cccc2c1 [Example 1, 3-(Phenylsulfonyl)-8-(1-pyrrolidinylmethyl)quinoline hydrochloride]
≤ 1 | ≤ 10 | CC1CCCCN1Cc1cccc2cc(S(=O)(=O)c3ccccc3)cnc12 (stereo not shown) [Example 29, 8-[(2-Methyl-1-piperidinyl)methyl]-3-(phenylsulfonyl)quinoline hydrochloride]
> 1 | < 1 | O=S(=O)(c1ccccc1)c1cnc2c(CN3CCCC(F)(F)C3)cccc2c1 [Example 27, 8-[(3,3-Difluoropiperidin-1-yl)methyl]-3-(phenylsulfonyl)quinoline hydrochloride]
< 0.1 | < 1 | O=S(=O)(c1ccccc1)c1cnc2c(CN3CCC(F)(F)CC3)cccc2c1 [Example 5, 8-[(4,4-Difluoro-1-piperidinyl)methyl]-3-(phenylsulfonyl)quinoline]
< 0.1 | < 1 | CC(C)NCc1cccc2cc(S(=O)(=O)c3ccccc3)cnc12 [Example 25, N-{[3-(phenylsulfonyl)-8-quinolinyl]methyl}-2-propanamine hydrochloride]
≤ 1 | ≤ 10 | CC(=O)N1CCN(Cc2cccc3cc(S(=O)(=O)c4ccccc4)cnc23)CC1 [Example 24, 8-[(4-acetyl-1-piperazinyl)methyl]-3-(phenylsulfonyl)quinoline hydrochloride]
< 0.1 | ≤ 10 | CC1CCC(C)N1Cc1cccc2cc(S(=O)(=O)c3ccccc3)cnc12 (stereo not shown) [Example 6, 8-[(2,5-Dimethyl-1-pyrrolidinyl)methyl)-3-(phenylsulfonyl)quinoline]
< 0.1 | ≤ 10 | CNCc1cccc2cc(S(=O)(=O)c3ccccc3)cnc12 [Example 26, N-methyl-1-[3-(phenylsulfonyl)-8-quinolinyl]methanamine hydrochloride]
< 0.1 | ≤ 10 | CN(C)Cc1cccc2cc(S(=O)(=O)c3ccccc3)cnc12 [Example 7, N,N-Dimethyl-1-[3-(phenylsulfonyl)quinolin-8-yl]methanamine]
< 0.1 | ≤ 10 | CC1CCCN1Cc1cccc2cc(S(=O)(=O)c3ccccc3)cnc12 (stereo not shown) [Example 8, 8-[(2-Methylpyrrolidin-1-yl)methyl]-3-(phenylsulfonyl)quinoline]
